From patent US20220110916A1, “Antioxidant and Use Thereof” (Bioradical Research Institute Corp., priority 2019, published 2022)

Columns and labels:
[1] = Storage stability in pH7.4-PBS or pure water at 37° C. protected from light, residual rate by HPLC; format: physicochemical; settings: 200 μmol/l; for Residual rate (%) After 1 week / Residual rate (%) After 2 weeks: 37° C., protected from light; for Residual rate (%) Initial concentration: initial concentration (reference 100%)
Experimental: The storage stability of edaravone, EMPO, ED2AP, and BisEp-C3 of the following formula (A) were examined. Specifically, edaravone, EMPO, ED2AP, and BisEp-C3 were dissolved in pH7.4-PBS or pure water so as to have a final concentration of 200 μmol/l to prepare dissolved solutions of these compounds. When the compounds were difficult to be dissolved, they were dissolved in an ultrasonic cleaner with warm water at 40° C.
Under the measurement conditions for HPLC described below, the initial concentration was quantified, and then each solution was stored in an oven, which was protected from light, at 37° C., and quantified under the same measurement conditions after 1 week and 2 weeks, to determine residual rate (%) with the initial concentration (100%) being a reference.
Measurement conditions for HPLC
PDA detector (Format: SPD-M20A) HPLC Assay Conditions:
Column: Atlantis dC18 5 μm (250×4.6 mm I.D.; produced by Waters)
Column temperature: 45° C.
Detection method: UV (254 nm)
Eluate A: pH3 buffer solution (adjusted to pH3 by adding phosphoric acid to 0.05M KH2PO4 aqueous solution)/methanol=90/10

[2] = tested on: neutrophils isolated from the peripheral blood of healthy individuals; assay: Superoxide production amount of PMA-stimulated neutrophils, CLA chemiluminescence; format: cell-based, human; settings: for relative value of the superoxide production amount: 0-200 μmol/l or 0-5000 μmol/l, PMA 100 ng/ml, control being 100, FIG. 2; for reactive oxygen species-eliminating ability compared with edaravone: PMA-stimulated neutrophils, FIG. 2(A)
Experimental: For examining the reactive oxygen-eliminating effect of the antioxidant of the present invention, the superoxide produced by the neutrophils when the neutrophils isolated from the peripheral blood of healthy individuals were stimulated with PMA (phorbor-12-myristate-13-acetate) was used. The superoxide production amount was measured by chemiluminescence using CLA (2-methyl-6-pjenyl-3, 7-dihydroimidazo[1,2-a]pyrazine-3-one).
First, ED2AP, BisEp-C3, edaravone, BisEp-C1, or BisEp-C1 (H2) was added to a neutrophil of 4×10^5 cells per sample so as to achieve a predetermined concentration (0, 12.5, 25, 50, 100, or 200 μmol/l, or 0, 125, 250, 500, 1250, 2500, or 5000 μmol/l) with 5 μmol of CLA, and then the cell suspension was seeded in flat-bottomed 96-well plates. The volume of the suspension was 200 μl/well, and phenol red free Ca+, Mg+ HBSS was used as the solution. In addition, the neutrophil was stimulated by adding PMA so as to achieve a concentration of 100 ng/ml. After the stimulation, a plate reader (Envision 2104 Multilabel Reader, produced by Perkin Elmer Co., Ltd.) was used to measure the chemiluminescence value over time for 30 minutes with the PMA stimulation time being a reference. The measurement interval was 30 seconds. The sum of the chemiluminescence values obtained every 30 seconds for 30 minutes was taken as the superoxide production amount. In addition, as a control, the superoxide production amount was measured in the same manner except that each compound was not added. The relative value of the superoxide production amount when each compound was added was calculated with the superoxide production amount of the control being 100.

rat neuroid cells B50 = assay: Toxicity evaluation on byproducts after reaction with singlet oxygen, cell viability; format: cell-based; settings: 50, 100, or 200 μmol/l reacted with RB + G-LED 525 nm in cell-free system; FIG. 6
Experimental: In a cell-free system, the RB was added to media (50% FCS-containing RPMI-1640 media) containing edaravone, ED2AP, and BisEp-C3 having a predetermined concentration (50, 100, or 200 μmol/l) and then irradiated with LED (G-LED) at 525 nm to generate singlet oxygen, whereby reacting each compound with singlet oxygen. The cell viability was measured in the same manner as in Example 7(1), except that the culture solution after the reaction was used as a medium of the neuroid cell B50. As a negative control (NC), the cell viability was measured in the same manner except that each compound and […] were not added in the cell-free system. Further, as a control (RB), the cell viability was measured in the same manner except that each compound was not added and only […] was added in the cell-free system.

Residual rate (%) After 1 week ([1]; Pure water) | Residual rate (%) After 2 weeks ([1]; Pure water) | Residual rate (%) Initial concentration ([1]; Pure water) | Residual rate (%) After 1 week ([1]; pH 7.4-PBS) | Residual rate (%) After 2 weeks ([1]; pH 7.4-PBS) | Residual rate (%) Initial concentration ([1]; pH 7.4-PBS) | Structure (SMILES) | relative value of the superoxide production amount [2] | reactive oxygen species-eliminating ability compared with edaravone [2] | cytotoxicity of the byproducts after reaction with singlet oxygen (cell viability) (rat neuroid cells B50)
99.4% | 88.5% | 100% | 98.7% | 93.6% | 100% | CCN1N=C(C)/C(=C\C=C\c2c(C)nn(CC)c2O)C1=O (racemic) [BisEp-C3, 2,4-dihydro-4-[3-(1-ethyl-5-hydroxy-3-methyl-1H-pyrazol-4-yl)-2-propen-1-ylidene]-2-ethyl-5-methyl-3H-pyrazol-3-one] | suppressed the superoxide production amount in a concentration-dependent manner | more potent than edaravone at high concentrations | not cytotoxic at any concentration
96.1% | 89.8% | 100% | 96.2% | 91.3% | 100% | CC1=NN(c2ccccc2)C(=O)/C1=C/C=C/c1c(C)nn(-c2ccccc2)c1O (racemic) [ED2AP, 2,4-dihydro-4-[3-(5-hydroxy-3-methyl-1-phenyl-1H-pyrazol-4-yl)-2-propen-1-ylidene]-5-methyl-2-phenyl-3H-pyrazol-3-one] | suppressed the superoxide production amount in a concentration-dependent manner | more potent than edaravone at high concentrations | not cytotoxic at any concentration
